According to EPA's ToxRefDB 2:

Key:
rat [1] = settings: Combined chronic toxicity/carcinogenicity, fischer, Oral, Feed, dose end: 105 week, group: systemic
mouse [2] = settings: Carcinogenicity, other, Oral, Feed, dose end: 2 year, group: systemic
rat [3] = settings: Multigenerational reproductive toxicity study, fischer, Oral, Feed, dose end: 3 generation
rat [4] = settings: Combined chronic toxicity/carcinogenicity; fischer; Oral; Feed; dose end: 2 year; group: systemic; systemic / in life observation / body weight / body weight + systemic / in life observation / body weight / body weight gain
rabbit = settings: Prenatal developmental toxicity study, new zealand white, Oral, Gavage/Intubation, dose end: 28 GD
mouse [5] = settings: Carcinogenicity; b6c3f1; Oral; Feed; dose end: 2 year; group: systemic; systemic / in life observation / body weight / body weight
rat [6] = settings: Prenatal developmental toxicity study, fischer, Oral, Gavage/Intubation, dose end: 15 GD
mouse [7] = settings: Subchronic oral toxicity in rodents, b6c3f1, Feed, dose end: 13 week, group: systemic, systemic / in life observation / body weight / body weight gain
rat [8] = settings: Subchronic oral toxicity in rodents, fischer, Feed, dose end: 13 week, group: systemic
mouse [9] = settings: Subchronic oral toxicity in rodents, b6c3f1, Gavage/Intubation, dose end: 13 week, group: systemic
rat [10] = settings: Carcinogenicity, fischer, Oral, Gavage/Intubation, dose end: 103 week, group: systemic
rat [11] = settings: Subchronic oral toxicity in rodents, fischer, Gavage/Intubation, dose end: 13 week, group: systemic
rat [12] = settings: Multigenerational reproductive toxicity study, sprague dawley, Oral, Feed, dose end: 2 generation
dog = settings: Multigenerational reproductive toxicity study; beagle; Oral; Feed; dose end: 3 generation; group: reproductive; reproductive / reproductive performance / estrous cycle / abnormal
rat [13] = settings: Multigenerational reproductive toxicity study, sprague dawley, Oral, Feed, dose end: 2 generation; remark: listed apart in the source
mouse [14] = settings: Carcinogenicity; b6c3f1; Oral; Feed; dose end: 78 week; group: systemic; systemic / in life observation / mortality / mortality
rat [15] = settings: Subchronic oral toxicity in rodents, other, Feed, dose end: 6 week, group: systemic, systemic / in life observation / body weight / body weight
rat [16] = settings: Carcinogenicity, other, Oral, Feed, dose end: 78 week, group: systemic
mouse [17] = settings: Subchronic oral toxicity in rodents, b6c3f1, Feed, dose end: 6 week, group: systemic
mouse [18] = settings: Multigenerational reproductive toxicity study, other, Oral, Feed, dose end: 5 generation
[19] = systemic / in life observation / body weight / body weight + systemic / organ weight / kidney / relative to body weight + systemic / …
[20] = systemic / clinical chemistry / alkaline phosphatase (alp/alk) / alkaline phosphatase (alp/alk) + systemic / clinical chemistry / chloride…
[21] = systemic / clinical chemistry / chloride / chloride + systemic / clinical chemistry / potassium / potassium + systemic / clinical chemistry…
[22] = group: offspring, systemic / in life observation / body weight / offspring (pup) weight
[23] = group: offspring, systemic / in life observation / body weight / offspring (pup) weight + systemic / organ weight / kidney / absolute
[24] = group: parental, systemic / in life observation / body weight / body weight + systemic / pathology microscopic / kidney / casts + systemic / pathology …
[25] = group: developmental, systemic / in life observation / body weight / fetal weight
[26] = group: maternal, systemic / in life observation / body weight / body weight gain + systemic / in life observation / clinical signs / alopecia + systemic / in…
[27] = group: developmental, developmental / developmental malformation / general / crown-rump length + developmental / offspring survival late / viability index / …
[28] = group: maternal, systemic / in life observation / clinical signs / blood around eyes and nose + systemic / in life observation / clinical signs / emaciation…
[29] = systemic / in life observation / body weight / body weight gain
[30] = systemic / in life observation / body weight / body weight + systemic / in life observation / mortality / mortality + systemic / organ …
[31] = systemic / organ weight / heart / absolute + systemic / organ weight / heart / relative to body weight
[32] = systemic / in life observation / body weight / body weight
[33] = systemic / in life observation / body weight / body weight + systemic / pathology microscopic / liver / neoplastic nodule + systemic / in …
[34] = systemic / clinical chemistry / alkaline phosphatase (alp/alk) / alkaline phosphatase (alp/alk) + systemic / clinical chemistry / gamma …
[35] = systemic / organ weight / spleen / absolute + systemic / organ weight / spleen / relative to body weight
[36] = group: offspring, systemic / in life observation / clinical signs / [other]
[37] = group: parental, systemic / organ weight / liver / relative to body weight
[38] = group: offspring, developmental / offspring survival late / viability index / viability index + developmental / developmental landmark / preputial separation…
[39] = group: parental, systemic / organ weight / adrenal gland / relative to body weight + systemic / organ weight / kidney / relative to body weight + systemic / …
[40] = systemic / in life observation / clinical signs / abdominogenital staining + systemic / in life observation / clinical signs / hunched …
[41] = systemic / in life observation / body weight / body weight gain + systemic / in life observation / mortality / mortality
[42] = group: offspring, systemic / pathology microscopic / blood / leukemia + systemic / pathology microscopic / blood vessel / [other] + systemic / pathology …
[43] = group: parental, systemic / pathology microscopic / blood vessel / [other] + systemic / pathology microscopic / lung / carcinoma + systemic / hematology / …

c1ccc(-c2ccccc2)cc1 [Biphenyl] gave an LOAEL (rat [1]; [19]) of over 225 mg/kg/day, an NEL (rat [1]; [19]) of 25 mg/kg/day and an NOAEL (rat [1]; [19]) of at least 225 mg/kg/day. The LEL (rat [1]; systemic / organ weight / kidney / relative to body weight) was 75 mg/kg/day, the LOAEL (mouse [2]; [20]) was over 1050 mg/kg/day and the NOAEL (mouse [2]; [20]) was at least 1050 mg/kg/day. For the same compound, the LEL (mouse [2]; [21]) was 97 mg/kg/day and the NEL (mouse [2]; [21]) was under 97 mg/kg/day.

With O=C1CCCCCN1 [Caprolactam] the LEL (rat [3]; [22]) was 250 mg/kg/day, the NEL (rat [3]; [22]) was 50 mg/kg/day and the LOAEL (rat [3]; [23]) was over 500 mg/kg/day. For the same compound, the NOAEL (rat [3]; [23]) was at least 500 mg/kg/day, the NEL (rat [3]; group: parental, systemic / in life observation / body weight / body weight) was 250 mg/kg/day and the LEL (rat [3]; [24]) was 500 mg/kg/day. The LOAEL (rat [3]; [24]) was over 500 mg/kg/day, the NOAEL (rat [3]; [24]) was at least 500 mg/kg/day and the LEL (rat [4]) was 188 mg/kg/day. For the same compound, the LOAEL (rat [4]) was 188 mg/kg/day, the NEL (rat [4]) was under 188 mg/kg/day and the NOAEL (rat [4]) was under 188 mg/kg/day. For the same compound, the LEL (rabbit; [25]) was 150 mg/kg/day, the LOAEL (rabbit; [25]) was over 250 mg/kg/day and the NEL (rabbit; [25]) was 50 mg/kg/day. For the same compound, the NOAEL (rabbit; [25]) was at least 250 mg/kg/day, the LEL (rabbit; group: maternal, systemic / in life observation / body weight / body weight gain) was 150 mg/kg/day and the LOAEL (rabbit; [26]) was over 250 mg/kg/day. It also gave an NEL (rabbit; [26]) of 50 mg/kg/day, an NOAEL (rabbit; [26]) of at least 250 mg/kg/day and an LEL (mouse [5]) of 1120 mg/kg/day. For the same compound, the LOAEL (mouse [5]) was 1120 mg/kg/day, the NEL (mouse [5]) was under 1120 mg/kg/day and the NOAEL (mouse [5]) was under 1120 mg/kg/day. It also gave an LEL (rat [6]; [27]) of 1000 mg/kg/day, an LOAEL (rat [6]; [27]) of over 1000 mg/kg/day and an NEL (rat [6]; [27]) of 500 mg/kg/day. It also gave an NOAEL (rat [6]; [27]) of at least 1000 mg/kg/day, an LEL (rat [6]; [28]) of 100 mg/kg/day and an LOAEL (rat [6]; [28]) of over 1000 mg/kg/day. It also gave an NEL (rat [6]; [28]) of under 100 mg/kg/day, an NOAEL (rat [6]; [28]) of at least 1000 mg/kg/day and an LEL (mouse [7]) of 750 mg/kg/day. For the same compound, the LOAEL (mouse [7]) was 750 mg/kg/day, the NEL (mouse [7]) was under 750 mg/kg/day and the NOAEL (mouse [7]) was under 750 mg/kg/day. The LEL (rat [8]; [29]) was 31 mg/kg/day, the LOAEL (rat [8]; [29]) was 125 mg/kg/day and the NEL (rat [8]; [29]) was under 31 mg/kg/day. It also gave an NOAEL (rat [8]; systemic / in life observation / body weight / body weight gain + systemic / in life observation / food consumption / food consumption) of 63 mg/kg/day.

Clc1ccccc1 [Chlorobenzene] was tested, and the LOAEL (mouse [9]; [30]) was over 750 mg/kg/day, the NOAEL (mouse [9]; [30]) was at least 750 mg/kg/day and the LEL (mouse [9]; [31]) was 60 mg/kg/day. It also gave an NEL (mouse [9]; [31]) of under 60 mg/kg/day, an LEL (rat [10]; [32]) of 60 mg/kg/day and an NEL (rat [10]; [32]) of under 60 mg/kg/day. It also gave an LOAEL (rat [10]; [33]) of over 120 mg/kg/day, an NOAEL (rat [10]; [33]) of at least 120 mg/kg/day and an LOAEL (rat [11]; [34]) of over 750 mg/kg/day. It also gave an NOAEL (rat [11]; [34]) of at least 750 mg/kg/day, an LEL (rat [11]; [35]) of 60 mg/kg/day and an NEL (rat [11]; [35]) of under 60 mg/kg/day.

With Clc1ccc(C(c2ccc(Cl)cc2)C(Cl)(Cl)Cl)cc1 [p,p'-DDT] the LEL (rat [12]; [36]) was 10 mg/kg/day, the LOAEL (rat [12]; [36]) was over 10 mg/kg/day and the NEL (rat [12]; [36]) was 1 mg/kg/day. It also gave an NOAEL (rat [12]; [36]) of at least 10 mg/kg/day, an LEL (rat [12]; [37]) of 10 mg/kg/day and an LOAEL (rat [12]; [37]) of over 10 mg/kg/day. The NEL (rat [12]; [37]) was 1 mg/kg/day, the NOAEL (rat [12]; [37]) was at least 10 mg/kg/day and the LEL (dog) was 1 mg/kg/day. It also gave an LOAEL (dog) of over 10 mg/kg/day, an NEL (dog) of under 1 mg/kg/day and an NOAEL (dog) of at least 10 mg/kg/day. For the same compound, the LEL (rat [13]; [38]) was 25 mg/kg/day, the LOAEL (rat [13]; [38]) was over 25 mg/kg/day and the NEL (rat [13]; [38]) was 3.44 mg/kg/day. The NOAEL (rat [13]; [38]) was at least 25 mg/kg/day, the LOAEL (rat [13]; [39]) was over 25 mg/kg/day and the NEL (rat [13]; [39]) was 0.343 mg/kg/day. The NOAEL (rat [13]; [39]) was at least 25 mg/kg/day, the LEL (rat [13]; group: parental, systemic / organ weight / liver / absolute + systemic / organ weight / liver / relative to body weight + systemic / pathology microscopic / …) was 3.44 mg/kg/day and the LEL (mouse [14]) was 26.2 mg/kg/day. The LOAEL (mouse [14]) was over 26.2 mg/kg/day, the NEL (mouse [14]) was 13.1 mg/kg/day and the NOAEL (mouse [14]) was at least 26.2 mg/kg/day. It also gave an LEL (rat [15]) of 28.1 mg/kg/day, an LOAEL (rat [15]) of 28.1 mg/kg/day and an NEL (rat [15]) of 15.8 mg/kg/day. It also gave an NOAEL (rat [15]) of 15.8 mg/kg/day, an LOAEL (rat [16]; [32]) of 21 mg/kg/day and an NOAEL (rat [16]; systemic / in life observation / body weight / body weight + systemic / in life observation / clinical signs / abdominogenital staining + …) of 10.5 mg/kg/day. For the same compound, the LEL (rat [16]; [40]) was 10.5 mg/kg/day, the NEL (rat [16]; [40]) was under 10.5 mg/kg/day and the LEL (mouse [17]; [29]) was 2.7 mg/kg/day. The NEL (mouse [17]; [29]) was under 2.7 mg/kg/day, the LOAEL (mouse [17]; [41]) was over 26.7 mg/kg/day and the NOAEL (mouse [17]; [41]) was at least 26.7 mg/kg/day. It also gave an LEL (mouse [18]; [42]) of 0.55 mg/kg/day, an LOAEL (mouse [18]; [42]) of over 0.55 mg/kg/day and an NEL (mouse [18]; [42]) of under 0.55 mg/kg/day. For the same compound, the NOAEL (mouse [18]; [42]) was at least 0.55 mg/kg/day, the LEL (mouse [18]; [43]) was 0.55 mg/kg/day and the LOAEL (mouse [18]; [43]) was over 0.55 mg/kg/day. The NEL (mouse [18]; [43]) was under 0.55 mg/kg/day and the NOAEL (mouse [18]; [43]) was at least 0.55 mg/kg/day.
